Experimental data reported in PMC11078746 (Nature, 2024).
“And” between values parts separate entries of the source, which are not always exact repeats. Identical values can stand only once.

Key:
HEC6 = test: CFA 10-14 day clonogenic assay; assay type: cell-based; conditions: Homo sapiens, HEC-6
RKO = test: CFA 10-14 day clonogenic assay; assay type: cell-based; conditions: Homo sapiens
SW48 xenografts = test: SW48 cell-derived xenograft efficacy, HRO761 orally once daily; assay type: in vivo, mouse
Procedure: All animal studies were conducted in accordance with ethics and procedures covered by permit BS-2275 and BS-1975 issued by the Kantonales Veterinäramt Basel-Stadt and in strict adherence to guidelines of the Eidgenössisches Tierschutzgesetz and the Eidgenössische Tierschutzverordnung, Switzerland. All animal studies were approved by the internal ethics committee. All animals had access to food and water ad libitum and were identified with transponders. They were housed in a specific-pathogen-free facility in IVC racks under a 12 h–12 h light–dark cycle. To establish cell-line-derived xenograft models, 6–7-week-old female athymic nude (Crl:NU(NCr)-Foxn1^nu) or SCID-BEIGE (CB17.Cg-PrkdcscidLystbg-J/Crl) mice from Charles River were engrafted subcutaneously with 5 million tumour cells in HBSS (H6648, Sigma-Aldrich). For SNU-407, Lovo, IM95, RL95.2, Ishikawa and IGROV-1, the cells were concentrated in 50% Matrigel (354234, Corning). Patient-derived xenografts were induced and expanded by transplantation as previously described. […] For the efficacy experiment, mice were randomized into groups (n = 5–6) for a mean tumour size of 100–150 mm^3. […] Blood samples were collected on day 7 and 91. […] Tumour responses are reported with the measures of tumour volumes from the treatment start. […] Animals were randomized (n = 3) and tumour samples were collected at 0, 1, 4, 8 and 24 h on the first day and then collected 4 h after the last treatment on day 3, 8, 10, 14 (including a 24 h timepoint), 17 and 21. Tumours were excised, weighed, either frozen in liquid nitrogen and cryogenic dry pulverized with the CryoPrep system (model CP-02, Covaris) or processed to FFPE after fixation. […] On day 12, blood samples were collected for PK analysis. On the last day (3 h after the last treatment), tumours were excised, weighed, frozen in liquid nitrogen and cryogenic dry pulverized for PD analysis.

CCc1c(N2CCN(C(=O)c3ncnc(C)c3O)CC2)c(=O)n2nc(C3=CCOCC3)nc2n1CC(=O)Nc1ccc(C(F)(F)F)cc1Cl [HRO761]
GI50 (HEC6): 0.016 µM
GI50 (RKO): 0.243 µM
max Reg (%) or max T/C (%) (SW48 xenografts; 10 mg/kg): 94.00%
tumour response (SW48 xenografts; 20 mg per kg, once daily oral): tumour stasis
max Reg (%) or max T/C (%) (SW48 xenografts; 20 mg/kg): 6.00%
max Reg (%) or max T/C (%) (SW48 xenografts; 30 mg/kg): -69.00%
max Reg (%) or max T/C (%) (SW48 xenografts; 40 mg/kg): -75.00%
max Reg (%) or max T/C (%) (SW48 xenografts; 60 mg/kg): -85.00%
max Reg (%) or max T/C (%) (SW48 xenografts; 120 mg/kg): -89.00%
Mean TVol (SW48 xenografts; HRO761 20mg/kg, day 0 post 1st dose): 148.57 mm3
Mean TVol (SW48 xenografts; HRO761 20mg/kg, day 3 post 1st dose): 172.19 mm3
Mean TVol (SW48 xenografts; HRO761 20mg/kg, day 7 post 1st dose): 214.06 mm3
Mean TVol (SW48 xenografts; HRO761 20mg/kg, day 10 post 1st dose): 199.01 mm3
Mean TVol (SW48 xenografts; HRO761 20mg/kg, day 14 post 1st dose): 193.54 mm3
TVol, individual mouse (SW48 xenografts; HRO761 20mg/kg, day 14 post 1st dose, 20 mg/kg): 183.48 mm3 and 119.53 mm3 and 120.69 mm3 and 296.11 mm3 and 247.89 mm3
Mean TVol (SW48 xenografts; HRO761 20mg/kg, day 17 post 1st dose): 171.07 mm3
TVol, individual mouse (SW48 xenografts; HRO761 20mg/kg, day 17 post 1st dose, 20 mg/kg): 183.94 mm3 and 118.26 mm3 and 128.1 mm3 and 182.42 mm3 and 242.62 mm3
Mean TVol (SW48 xenografts; HRO761 20mg/kg, day 21 post 1st dose): 210.51 mm3
TVol, individual mouse (SW48 xenografts; HRO761 20mg/kg, day 21 post 1st dose, 20 mg/kg): 237.44 mm3 and 188.88 mm3 and 167.52 mm3 and 218.78 mm3 and 239.95 mm3
Mean TVol (SW48 xenografts; HRO761 20mg/kg, day 24 post 1st dose): 217.13 mm3
TVol, individual mouse (SW48 xenografts; HRO761 20mg/kg, day 24 post 1st dose, 20 mg/kg): 213.9 mm3 and 149.74 mm3 and 186.94 mm3 and 199.91 mm3 and 335.14 mm3
Mean TVol (SW48 xenografts; HRO761 20mg/kg, day 28 post 1st dose): 270.81 mm3
TVol, individual mouse (SW48 xenografts; HRO761 20mg/kg, day 28 post 1st dose, 20 mg/kg): 244.97 mm3 and 189.99 mm3 and 254.46 mm3 and 269.33 mm3 and 395.3 mm3
Mean TVol (SW48 xenografts; HRO761 20mg/kg, day 31 post 1st dose): 317.23 mm3
Mean TVol (SW48 xenografts; HRO761 20mg/kg, day 35 post 1st dose): 380.57 mm3
Mean TVol (SW48 xenografts; HRO761 20mg/kg, day 38 post 1st dose): 438.75 mm3
Mean TVol (SW48 xenografts; HRO761 20mg/kg, day 42 post 1st dose): 626.99 mm3
Mean TVol (SW48 xenografts; HRO761 20mg/kg, day 45 post 1st dose): 658.99 mm3
Mean TVol (SW48 xenografts; HRO761 40mg/kg, day 0 post 1st dose): 148.59 mm3
Mean TVol (SW48 xenografts; HRO761 40mg/kg, day 3 post 1st dose): 162.25 mm3
Mean TVol (SW48 xenografts; HRO761 40mg/kg, day 7 post 1st dose): 181.10 mm3
Mean TVol (SW48 xenografts; HRO761 40mg/kg, day 10 post 1st dose): 146.66 mm3
Mean TVol (SW48 xenografts; HRO761 40mg/kg, day 14 post 1st dose): 133.58 mm3
TVol, individual mouse (SW48 xenografts; HRO761 40mg/kg, day 14 post 1st dose, 40 mg/kg): 137.47 mm3 and 92.79 mm3 and 146.32 mm3 and 135.46 mm3 and 155.86 mm3
Mean TVol (SW48 xenografts; HRO761 40mg/kg, day 17 post 1st dose): 95.84 mm3
TVol, individual mouse (SW48 xenografts; HRO761 40mg/kg, day 17 post 1st dose, 40 mg/kg): 84.05 mm3 and 68.24 mm3 and 117.68 mm3 and 91.67 mm3 and 117.57 mm3
Mean TVol (SW48 xenografts; HRO761 40mg/kg, day 21 post 1st dose): 84.88 mm3
TVol, individual mouse (SW48 xenografts; HRO761 40mg/kg, day 21 post 1st dose, 40 mg/kg): 65.27 mm3 and 62.26 mm3 and 114.98 mm3 and 87.79 mm3 and 94.1 mm3
Mean TVol (SW48 xenografts; HRO761 40mg/kg, day 24 post 1st dose): 52.61 mm3
TVol, individual mouse (SW48 xenografts; HRO761 40mg/kg, day 24 post 1st dose, 40 mg/kg): 40.05 mm3 and 34.46 mm3 and 63.81 mm3 and 55.22 mm3 and 69.51 mm3
Mean TVol (SW48 xenografts; HRO761 40mg/kg, day 28 post 1st dose): 44.44 mm3
TVol, individual mouse (SW48 xenografts; HRO761 40mg/kg, day 28 post 1st dose, 40 mg/kg): 41.72 mm3 and 27.23 mm3 and 46.41 mm3 and 45.86 mm3 and 60.97 mm3
Mean TVol (SW48 xenografts; HRO761 40mg/kg, day 31 post 1st dose): 37.24 mm3
Mean TVol (SW48 xenografts; HRO761 40mg/kg, day 35 post 1st dose): 32.88 mm3
Mean TVol (SW48 xenografts; HRO761 40mg/kg, day 38 post 1st dose): 33.30 mm3
Mean TVol (SW48 xenografts; HRO761 40mg/kg, day 42 post 1st dose): 36.90 mm3
Mean TVol (SW48 xenografts; HRO761 40mg/kg, day 45 post 1st dose): 34.79 mm3
Mean TVol (SW48 xenografts; HRO761 40mg/kg, day 49 post 1st dose): 37.27 mm3
Mean TVol (SW48 xenografts; HRO761 40mg/kg, day 52 post 1st dose): 35.78 mm3
Mean TVol (SW48 xenografts; HRO761 40mg/kg, day 56 post 1st dose): 46.42 mm3
Mean TVol (SW48 xenografts; HRO761 40mg/kg, day 59 post 1st dose): 55.91 mm3
Mean TVol (SW48 xenografts; HRO761 40mg/kg, day 63 post 1st dose): 77.49 mm3
Mean TVol (SW48 xenografts; HRO761 40mg/kg, day 66 post 1st dose): 84.81 mm3
Mean TVol (SW48 xenografts; HRO761 40mg/kg, day 70 post 1st dose): 105.06 mm3
Mean TVol (SW48 xenografts; HRO761 40mg/kg, day 73 post 1st dose): 118.43 mm3
Mean TVol (SW48 xenografts; HRO761 40mg/kg, day 76 post 1st dose): 139.13 mm3
Mean TVol (SW48 xenografts; HRO761 40mg/kg, day 79 post 1st dose): 184.71 mm3
Mean TVol (SW48 xenografts; HRO761 40mg/kg, day 83 post 1st dose): 215.37 mm3
Mean TVol (SW48 xenografts; HRO761 40mg/kg, day 86 post 1st dose): 261.40 mm3
Mean TVol (SW48 xenografts; HRO761 40mg/kg, day 90 post 1st dose): 329.03 mm3
Mean TVol (SW48 xenografts; HRO761 40mg/kg, day 92 post 1st dose): 334.15 mm3
Mean TVol (SW48 xenografts; HRO761 60mg/kg, day 0 post 1st dose): 148.59 mm3
Mean TVol (SW48 xenografts; HRO761 60mg/kg, day 3 post 1st dose): 184.38 mm3
Mean TVol (SW48 xenografts; HRO761 60mg/kg, day 7 post 1st dose): 168.35 mm3
Mean TVol (SW48 xenografts; HRO761 60mg/kg, day 10 post 1st dose): 139.22 mm3
